Source: patent US20100056522A1, “INTRAOCULAR PRESSURE-LOWERING AGENT COMPRISING COMPOUND HAVING HISTONE DEACETYLASE INHIBITOR EFFECT AS ACTIVE INGREDIENT” (Santen Pharmaceutical Co., Ltd., priority 2007, published 2010)

What was measured:
[1] = tested on: HDAC (HeLa nuclear extract); test: Test for evaluation of an HDAC inhibitory effect (HDAC Fluorimetric Assay/Drug Discovery Kit, Biomol); format: biochemical; details: final concentration of test compound 30 μM, rates of more than 100% are shown as 100%
[2] = tested on: male Japanese White rabbits; test: Test for evaluation of intraocular pressure-lowering effect by intracameral administration; format: in vivo; details: 1 mM administration liquid, 20 μL intracameral, 8 or 9 hours after administration, vs vehicle control group, 6 cases
Method: In order to evaluate an intraocular pressure-lowering effect of the present compounds, a test for evaluation of intraocular pressure-lowering effect by intracameral administration of a drug using male Japanese White rabbits was performed.
A test compound was dissolved or suspended in physiological saline containing 0.5% dimethyl sulfoxide, whereby a 0.1 mM or 1 mM test compound administration liquid was prepared.
One drop of 0.4% oxybuprocaine hydrochloride eye drop was instilled into both eyes of each male Japanese White rabbit to achieve local anesthesia, and thereafter, the intraocular pressure was measured using an applanation tonometer. Then, by using a syringe fitted with a 30-gauge needle, the test compound administration liquid (20 μL) was intracamerally administered to one eye. As a control, 20 μL of the vehicle (physiological saline containing 0.5% dimethyl sulfoxide) for the test compound was intracamerally administered. After the lapse of a certain period of time from the administration of the test compound or vehicle, one drop of 0.4% oxybuprocaine hydrochloride eye drop was instilled into the administered eye to achieve local anesthesia, and thereafter, the intraocular pressure was measured using an applanation tonometer.
The intraocular pressure-lowering effect of each test compound was evaluated by calculating an intraocular pressure reduction rate. The intraocular pressure reduction rate (%) was calculated using the following equation.
(Intraocular Pressure Reduction Rate(%))=100×[{(Average Value of Intraocular Pressure of Control Group)−(Average Value of Intraocular Pressure of Each Test Compound Administration Group)}/(Average Value of Intraocular Pressure of Control Group)]

[3] = tested on: TM-1 cells (human trabecular meshwork cell line); test: Test for evaluation of effect of morphological change on trabecular meshwork cells (cell shape index); format: cell-based; details: 10 μM, 24 hours, control CSI 0.679, lower CSI indicates greater morphological change

For CN(C)CCN(Cc1ccc(C(=O)Nc2ccccc2N)nc1)C(=O)Nc1nccs1 [Compound 1-96, N-(2-Aminophenyl)-5-[1-(2-dimethylaminoethyl)-3-(1,3-thiazol-2-yl)ureidomethyl]pyridine-2-carboxylic acid amide], the “Enzyme Inhibitory Rate (%)” value [1] was 98%, the “Intraocular Pressure Reduction Rate (%)” value [2] was 18% and the CSI [3] was 0.489.

In the case of Nc1ccccc1NC(=O)c1ccc(CNc2nccc(-c3cccnc3)n2)cc1 [MGCD-0103 free base, N-(2-Aminophenyl)-4-[4-(pyridin-3-yl)pyrimidin-2-ylaminomethyl]benzamide, reference compound], the “Enzyme Inhibitory Rate (%)” value [1] is reported as 96%, the “Intraocular Pressure Reduction Rate (%)” value [2] is reported as 23% and the CSI [3] is reported as 0.584.

For Nc1ccccc1NC(=O)c1ccc(CNC(=O)OCc2cccnc2)cc1 [MS 275, N-(2-Aminophenyl)-4-(pyridin-3-ylmethyloxycarbonylaminomethyl)benzamide, reference compound], the “Enzyme Inhibitory Rate (%)” value [1] was 99%, the “Intraocular Pressure Reduction Rate (%)” value [2] was 13% and the CSI [3] was 0.552.

With CC(/C=C/C(=O)NO)=C\[C@@H](C)C(=O)c1ccc(N(C)C)cc1 [Trichostatin A, reference compound] the “Enzyme Inhibitory Rate (%)” value [1] was 100%, the “Intraocular Pressure Reduction Rate (%)” value [2] was 18% and the CSI [3] was 0.496.
